Measurements published in patent US9492436B2, “Azabenzimidazole derivatives” (Boehringer Ingelheim International GmbH, priority 2013, dated 2016).

Target: T1, AMPK complex 1 (containing alpha1beta1gamma1) (Homo sapiens, UniProt Q13131+Q9Y478)
T1 construct: GST (Glutathion S transferase) (N); made in house; host or cells: baculovirus; virus made in Sf9, expression in High Five cells
Assay: In vitro AMPK activation assay (ADP-Glo Kinase Assay)
Type: biochemical
Conditions: 30 μM ATP, 1 μM peptide, 60 min, room temperature
Source text: Activated AMPK complex 1 (containing alpha1beta1gamma1) was obtained from baculovirus expression system. The gene encoding AMPK alpha1 was cloned into the pACG2T vector (BD Biosciences) to obtain a N-terminal Glutathion S transferase (GST)-fusion protein. The genes encoding AMPK beta 1 and gamma1 were cloned into the p2Bac dual multiple cloning site vector (Invitrogen) with beta1 under the control of the p10 promoter and gamma1 under the control of the PH promoter. The transfer vectors containing AMPK were co-transfected individually with AcPNV BacMagic-3 DNA (EMD Millipore) in Sf9 cells and the recombinant baculoviruses were harvested after 5 days, followed by 3 rounds of amplification of the virus stock in Sf9 cells. AMPK (alpha1beta1gamma1) was expressed in High Five 5 cells by co-infection of recombinant alpha1 virus and recombinant beta1/gamma1 virus for 72 h at 27° C. Cells were harvested by centrifugation and lysed by 3 freeze/thaw cycles in PBS with 10% glycerol and protease inhibitor cocktail (Roche). After centrifugation AMPK a1b1g1 in the supernatant was captured by immobilized glutathione (GE Healthcare), impurities were washed away with PBS and AMPK alpha1beta1gamma1 was eluted with PBS containing 20 mM reduced gluthathione. The protein buffer was then exchanged to PBS with 10% glycerol and protein concentration was determined by UV absorbance.
The white 384-well Optiplates (cat.no. 6007299) were purchased from PerkinElmer. The V9101 ADP-Glo Kinase Assay and ultra pure ATP (V915A) was purchased from Promega. The substrate for AMPK (NH2-HMRSAMSGLHLVKRR_CONH2) was purchased from Upstate (12-355).
Compounds were tested in either serial dilutions or single dose concentrations. The serial compound dilutions were prepared in 100% DMSO automatically. The final DMSO concentration in the assay was 0.1%.
The Compound Stock Solutions were 10 mM in 100% DMSO. The compounds were solubilised at room temperature.
In the 384-well plates 1.25 ul of test compound in assay buffer was mixed with 1.25 ul of AMPK and 1.25 μl of the peptide (final concentration of 1 μM) and 1.25 μl of ATP (final concentration of 30 μM), both dissolved in assay buffer. This step was followed by an incubation time of 60 min. Then 5 μl of ADP Glo Reagent was added. This was followed by 40 min of incubation. Then 10 μl of Kinase Detection Reagent was admixed. The plates were sealed and after an incubation period of 30 min, the luminescence signal was measured in an Envision reader. All incubation steps were accomplished at room temperature.
Each assay microtiter plate contained wells with vehicle controls instead of compound (0.1% DMSO in water) as reference for the low signal (100% CTL, low signal), and wells with serial dilutions of AMP (final 30 μM) as reference for high signals.
The luminescence signal generated was proportional to the ADP concentration produced and was correlated with AMPK activity. The analysis of the data was performed by the calculation of the percentage of ATP consumption of AMPK in the presence of the test compound compared to the consumption of ATP in the presence of AMPK without compound. (RLU(sample)/RLU(low control))*100[RLU=relative luminescence units]
An activator of the AMPK enzyme gave values above 100% CTL.
EC50 values based on dose response curves are calculated with the XIFIT software using the 4 Parameter Logistic Model or Sigmoidal Dose-Response Model.

T1 sequence (Q13131 whole entry): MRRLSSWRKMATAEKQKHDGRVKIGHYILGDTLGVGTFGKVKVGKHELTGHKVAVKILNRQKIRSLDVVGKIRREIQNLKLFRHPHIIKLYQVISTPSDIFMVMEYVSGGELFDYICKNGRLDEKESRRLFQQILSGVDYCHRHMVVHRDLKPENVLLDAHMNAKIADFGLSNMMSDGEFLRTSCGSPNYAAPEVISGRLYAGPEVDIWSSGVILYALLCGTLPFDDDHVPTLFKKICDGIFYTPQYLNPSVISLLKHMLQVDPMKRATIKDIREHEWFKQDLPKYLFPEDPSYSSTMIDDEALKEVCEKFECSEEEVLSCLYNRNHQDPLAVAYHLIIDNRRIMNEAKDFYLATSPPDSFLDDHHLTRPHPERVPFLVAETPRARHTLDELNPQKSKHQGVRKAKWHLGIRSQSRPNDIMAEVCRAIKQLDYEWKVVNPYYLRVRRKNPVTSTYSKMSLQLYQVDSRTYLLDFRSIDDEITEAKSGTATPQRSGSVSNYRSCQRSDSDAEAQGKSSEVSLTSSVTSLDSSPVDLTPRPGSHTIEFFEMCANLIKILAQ
T1 sequence (Q9Y478 whole entry): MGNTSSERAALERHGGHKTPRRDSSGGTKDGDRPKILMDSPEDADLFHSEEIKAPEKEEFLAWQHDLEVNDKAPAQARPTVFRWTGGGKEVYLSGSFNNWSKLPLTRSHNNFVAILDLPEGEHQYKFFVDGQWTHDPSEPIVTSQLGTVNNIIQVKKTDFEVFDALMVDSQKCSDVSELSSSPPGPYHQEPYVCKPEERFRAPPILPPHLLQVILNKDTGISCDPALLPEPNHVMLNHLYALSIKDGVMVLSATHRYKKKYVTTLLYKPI
T1 sequence (P54619 whole entry partner): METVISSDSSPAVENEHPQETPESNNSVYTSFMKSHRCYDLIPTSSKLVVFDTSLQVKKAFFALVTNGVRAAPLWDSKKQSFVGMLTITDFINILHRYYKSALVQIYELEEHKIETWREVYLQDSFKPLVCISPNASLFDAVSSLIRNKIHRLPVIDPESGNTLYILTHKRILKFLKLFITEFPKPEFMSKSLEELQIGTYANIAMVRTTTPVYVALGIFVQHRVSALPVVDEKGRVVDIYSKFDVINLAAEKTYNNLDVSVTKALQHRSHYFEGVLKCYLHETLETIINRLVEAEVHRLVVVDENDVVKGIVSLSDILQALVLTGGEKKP

| Compound | EC50 [nM] |
| --- | --- |
| CS(C)(=O)=Nc1cccc(-c2ccc(-c3nc4[nH]c(O[C@@H]5CO[C@H]6[C@@H]5OC[C@H]6O)nc4cc3Cl)cc2)c1 [Example 14, N-(4′-(6-Chloro-2-((3R,3aR,6R,6aR)-6-hydroxyhexahydrofuro[3,2-b]furan-3-yloxy)-3H-imidazo[4,5-b]pyridin-5-yl)biphenyl-3-yl)-S,S-dimethylsulfoximide] | 6 |
| CS(C)(=O)=Nc1cnc(-c2ccc(-c3nc4[nH]c(O[C@@H]5CO[C@H]6[C@@H]5OC[C@H]6O)nc4cc3Cl)cc2)cn1 [Example 39, N-(5-{4-[6-Chloro-2-((3R,3aR,6R,6aR)-6-hydroxyhexahydrofuro[3,2-b]furan-3-yloxy)-3H-imidazo[4,5-b]pyridin-5-yl]-phenyl}-pyrazin-2-yl)-S,S-dimethylsulfoximide] | 8 |
| CS(=N)(=O)c1cccc(-c2ccc(-c3nc4[nH]c(O[C@@H]5CO[C@H]6[C@@H]5OC[C@H]6O)nc4cc3Cl)cc2)c1 (stereo partly drawn) [Example 41, (3R,3aR,6R,6aR)-6-(6-Chloro-5-(3′-(S-methylsulfonimidoyl)biphenyl-4-yl)-3H-imidazo[4,5-b]pyridin-2-yloxy)hexahydrofuro[3,2-b]furan-3-ol] | 209 |
| CS(C)(=O)=Nc1ccc2c(c1)CN(c1ccc(-c3nc4[nH]c(O[C@@H]5CO[C@H]6[C@@H]5OC[C@H]6O)nc4cc3Cl)cc1)C2 [Example 43, N-(2-{4-[6-Chloro-2-((3R,3aR,6R,6aR)-6-hydroxyhexahydrofuro[3,2-b]furan-3-yloxy)-3H-imidazo[4,5-b]pyridin-5-yl]-phenyl}-2,3-dihydro-1H-isoindol-5-yl)-S,S-dimethylsulfoximide] | 293 |
| CS(=O)(=NC(=O)c1ccc(-c2nc3[nH]c(O[C@@H]4CO[C@H]5[C@@H]4OC[C@H]5O)nc3cc2Cl)cc1)C1CCOCC1 (stereo partly drawn) [Example 20, N-4-(6-Chloro-2-((3R,3aR,6R,6aR)-6-hydroxyhexahydrofuro[3,2-b]furan-3-yloxy)-3H-imidazo[4,5-b]pyridin-5-yl)benzoyl-S-methyl-S-(tetrahydro-2H-pyran-4-yl)-sulfoximine] | 776 |
| N=S1(=O)CCC(c2ccc(-c3nc4[nH]c(O[C@@H]5CO[C@H]6[C@@H]5OC[C@H]6O)nc4cc3Cl)cc2)CC1 (single isomer, unassigned) [Example 54] | 114 |
| CCS(=O)(CC)=Nc1ccc(-c2ccc(-c3nc4[nH]c(O[C@@H]5CO[C@H]6[C@@H]5OC[C@H]6O)nc4cc3Cl)cc2)cc1 [Example 11, N-(4′-(6-Chloro-2-((3R,3aR,6R,6aR)-6-hydroxyhexahydrofuro[3,2-b]furan-3-yloxy)-3H-imidazo[4,5-b]pyridin-5-yl)biphenyl-4-yl)-S,S-diethylsulfoximide] | 3 |
| CN=S(C)(=O)c1ccc(N2CCN(c3nc4[nH]c(O[C@@H]5CO[C@H]6[C@@H]5OC[C@H]6O)nc4cc3Cl)CC2)cc1 (stereo partly drawn) [Example 29, (3R,3aR,6R,6aR)-6-(6-Chloro-5-(4-(4-(N,S-dimethylsulfonimidoyl)phenyl)piperazin-1-yl)-3H-imidazo[4,5-b]pyridin-2-yloxy)hexahydrofuro[3,2-b]furan-3-ol] | 725 |
| CN=S1(=O)CC2CN(c3ccc(-c4nc5[nH]c(O[C@@H]6CO[C@H]7[C@@H]6OC[C@H]7O)nc5cc4Cl)cc3)CC2C1 (stereo partly drawn) [Example 57, (3R,3aR,6R,6aR)-6-{6-Chloro-5-[4-(2-methylimino-2-oxo-hexahydro-2λ^6-thieno[3,4-c]pyrrol-5-yl)-phenyl]-3H-imidazo[4,5-b]pyridin-2-yloxy}-hexahydro-furo[3,2-b]furan-3-ol] | 118 |
| CS(C)(=O)=NCc1cc(-c2ccc(-c3nc4[nH]c(O[C@@H]5CO[C@H]6[C@@H]5OC[C@H]6O)nc4cc3Cl)cc2)ccn1 [Example 53] | 56 |
| C[S@@](=O)(=NC(=O)c1ccc(-c2nc3[nH]c(O[C@@H]4CO[C@H]5[C@@H]4OC[C@H]5O)nc3cc2Cl)cc1)c1ccccc1 [Example 16, (S)-N-4-(6-Chloro-2-((3R,3aR,6R,6aR)-6-hydroxyhexahydrofuro[3,2-b]furan-3-yloxy)-3H-imidazo[4,5-b]pyridin-5-yl)benzoyl-S-methyl-5-phenylsulfoximine] | 245 |
| CS(C)(=N)=Nc1ccc(-c2nc3[nH]c(O[C@@H]4CO[C@H]5[C@@H]4OC[C@H]5O)nc3cc2Cl)cc1 [Example 56, N-(4-(6-Chloro-2-((3R,3aR,6R,6aR)-6-hydroxyhexahydrofuro[3,2-b]furan-3-yloxy)-3H-imidazo[4,5-b]pyridin-5-yl)phenyl)-S,S-dimethyl-sulfondiimine] | 41 |
| CS(=N)(=O)c1cnc(-c2ccc(-c3nc4[nH]c(O[C@@H]5CO[C@H]6[C@@H]5OC[C@H]6O)nc4cc3Cl)cc2)nc1 (stereo partly drawn) [Example 49, (3R,3aR,6R,6aR)-6-(6-Chloro-5-(4-(5-(S-methylsulfonimidoyl)pyrimidin-2-yl)phenyl)-3H-imidazo[4,5-b]pyridin-2-yloxy)hexahydrofuro[3,2-b]furan-3-ol] | 26 |
| O=C(N=S1(=O)CCOCC1)c1ccc(-c2nc3[nH]c(O[C@@H]4CO[C@H]5[C@@H]4OC[C@H]5O)nc3cc2Cl)cc1 [Example 21, 4-[6-Chloro-2-((3R,3aR,6R,6aR)-6-hydroxy-hexahydro-furo[3,2-b]furan-3-yloxy)-3H-imidazo[4,5-b]pyridin-5-yl]-N-(4-oxo-4λ6-[1,4]oxathian-4-ylidene)-benzamide] | 43 |
| CS(C)(=O)=NCc1ccc(-c2ccc(-c3nc4[nH]c(O[C@@H]5CO[C@H]6[C@@H]5OC[C@H]6O)nc4cc3Cl)cc2)nc1 [Example 48, N-(6-(4-(6-Chloro-2-((3R,3aR,6R,6aR)-6-hydroxyhexahydrofuro[3,2-b]furan-3-yloxy)-3H-imidazo[4,5-b]pyridin-5-yl)phenyl)pyridin-3-ylmethyl)-S,S-dimethylsulfoximide] | 16 |
| CS(C)(=O)=Nc1ccnc(-c2ccc(-c3nc4[nH]c(O[C@@H]5CO[C@H]6[C@@H]5OC[C@H]6O)nc4cc3Cl)cc2)c1 [Example 37, N-(2-{4-[6-Chloro-2-((3R,3aR,6R,6aR)-6-hydroxyhexahydrofuro[3,2-b]furan-3-yloxy)-3H-imidazo[4,5-b]pyridin-5-yl]-phenyl}-pyridin-4-yl)-S,S-dimethylsulfoximide] | 47 |
| C[S@](=O)(=Nc1ccc(-c2nc3[nH]c(O[C@@H]4CO[C@H]5[C@@H]4OC[C@H]5O)nc3cc2Cl)cc1)c1ccccc1 [Example 12, (R)-N-(4-(6-Chloro-2-((3R,3aR,6R,6aR)-6-hydroxyhexahydrofuro[3,2-b]furan-3-yloxy)-3H-imidazo[4,5-b]pyridin-5-yl)phenyl)-S-methyl-S-phenylsulfoximide] | 581 |
| CS(C)(=O)=NC(=O)c1ccc(-c2ccc(-c3nc4[nH]c(O[C@@H]5CO[C@H]6[C@@H]5OC[C@H]6O)nc4cc3Cl)cc2)cc1 [Example 6, N-4′-(6-Chloro-2-((3R,3aR,6R,6aR)-6-hydroxyhexahydrofuro[3,2-b]furan-3-yloxy)-3H-imidazo[4,5-b]pyridin-5-yl)biphenyl-4-carbonyl-S,S-dimethylsulfoximide] | 2 |
| CS(=O)(=NC(=O)c1ccc(-c2nc3[nH]c(O[C@@H]4CO[C@H]5[C@@H]4OC[C@H]5O)nc3cc2Cl)cc1)c1cccnc1 (stereo partly drawn) [Example 19, N-4-(6-Chloro-2-((3R,3aR,6R,6aR)-6-hydroxyhexahydrofuro[3,2-b]furan-3-yloxy)-3H-imidazo[4,5-b]pyridin-5-yl)benzoyl-S-methyl-S-(pyridin-3-yl)-sulfoximine] | 55 |
| CS(C)(=O)=Nc1ccc(-c2nc3[nH]c(O[C@@H]4CO[C@H]5[C@@H]4OC[C@H]5O)nc3cc2Cl)cc1 [Example 1] | 275 |
